Measured values taken from patent US10736841B2, “Bepotastine compositions” (BAUSCH & LOMB INCORPORATED, priority 2011, dated 2020).
Read-outs that look alike come from different tables or passages of the source.

How the values were obtained:
[1] = Drug substance description (solubility, hygroscopicity); assay type: physicochemical
Source text: Bepotastine besilate is a white to off-white, odorless, crystalline powder. The bepotastine drug substance physiological mode of action is inhibition of histamine H1 receptors to relieve typical symptoms associated with allergic rhinitis. […] Fluticasone propionate is a white to off-white, crystalline synthetic trifluorinated corticosteroid used to treat inflammatory symptoms related to asthma and allergic rhinitis.

[2] = system: microorganisms; experiment: USP 51 Preservative Efficacy Test (overall outcome); assay type: cell-based; settings: BAK at a concentration of 0.200 mg/mL
Source text: The term “preservative efficacy” or “preservative effectiveness” or “antimicrobial efficacy”, as used herein, means that the composition satisfies USP standards as defined in protocol <51> p. 1681, United States Pharmacopeia, 1995: Antimicrobial effectiveness testing; The United States Pharmacopeia, 32nd rev ed., and the National Formulary, 27th ed. Rockville, Md.: USPC; 2009. For example, the preservative is effective in the product examined if (a) the concentrations of viable bacteria are reduced to not more than 0.1% of the initial concentrations by the fourteenth day; (b) the concentrations of viable yeasts and molds remain at or below the initial concentrations during the first 14 days; and (c) the concentration of each test microorganism remains at or below these designated levels during the remainder of the 28-day test period. Similar criteria are defined for BP standards (Efficacy of Antimicrobial Preservation, Appendix XVI C, 1995), and PhEur standards (Efficacy of Antimicrobial Preservation, Chapter VIII. 14, 1992).
The compositions provided herein may include an effective amount of an antimicrobial preservative. Preservatives can be used to inhibit microbial growth (e.g., bacterial or yeast) in the compositions. An “effective amount” of a preservative is that amount necessary to prevent the growth of microorganisms in the composition. […]

[3] = cited from earlier work
[4] = Chemical stability studies at 25° C. and 40° C. in amber glass bottles; assay type: physicochemical
Procedure: Chemical stability studies were performed to determine if the formulation would likely achieve a commercially practical shelf-life. Studies were performed at 25° C. and 40° C. in moisture impermeable amber glass bottles.

O=C(O)CCCN1CCC(O[C@@H](c2ccc(Cl)cc2)c2ccccn2)CC1.O=S(=O)(O)c1ccccc1 [Bepotastine besilate, (+)-(S)-4-[4-[(4-chlorophenyl)(2-pyridyl)methoxy]piperidino]butyric acid]
hygroscopicity ([1]; drug substance powder): non-hygroscopic
dissolution in the nasal spray formulation vehicle ([1]; nasal spray formulation vehicle): dissolves readily

benzalkonium chloride [BAK]
effectiveness as preservative [2]: effective preservative

CCC(=O)O[C@]1(C(=O)SCF)[C@H](C)C[C@H]2[C@@H]3C[C@H](F)C4=CC(=O)C=C[C@]4(C)[C@@]3(F)[C@@H](O)C[C@@]21C [fluticasone propionate, Fluticasone propionate]
solubility in water [3]: practically insoluble
solubility in water ([3]; listed as fluticasone): insoluble

O=C(O)CCCN1CCC(O[C@@H](c2ccc(Cl)cc2)c2ccccn2)CC1 [Bepotastine, (+)-(S)-4-[4-[(4-chlorophenyl)(2-pyridyl)methoxy]piperidino]butyric acid]
impurities found during stability evaluation [4]: only impurity found was the ethyl ester precursor of bepotastine
